Measurements as given in patent US20250041179A1, “ANTIMICROBIAL COMBINATIONS” (SYMRISE AG, priority 2021, published 2025).

Tests used:
S. aureus [1] = assay: Preservative efficacy test (Ph. Eur., adjusted inoculum) in O/W anionic emulsion; type: cell-based, Staphylococcus aureus; conditions: substance alone 0.5% w/w
Method: (§1) Material was tested in predesigned standardised cosmetic formulations either as oil-in-water anionic emulsion (Table 2), shampoo (Table 3), or wet wipe solution (Table 4). The antimicrobial actives were dissolved or mixed with the standardised cosmetic formulations, leading to the indicated test concentrations (in w/w %, cf. […] To determine synergistic indices, raw values for bacterial of fungal colony counts were used. [table] […] Steinberg D. C. (2000): Measuring Synergy. In Cosmetics & Toiletries, 115) was used: […]

E. coli [2] = assay: as above; type: cell-based, Escherichia coli; conditions: substance alone 0.5% w/w
Method: as §1

E. coli [3] = assay: Preservative efficacy test (Ph. Eur., adjusted inoculum) in shampoo formulation; type: cell-based, Escherichia coli; conditions: substance alone 0.5% w/w
Method: (§2) Preservative efficacy tests were performed according to the European Pharmacopoeia with adjusted inoculation numbers (10^6-10^7 cells of suitable bacteria or fungi). Material was tested in predesigned standardised cosmetic formulations either as oil-in-water anionic emulsion (Table 2), shampoo (Table 3), or wet wipe solution (Table 4). The antimicrobial actives were dissolved or mixed with the standardised cosmetic formulations, leading to the indicated test concentrations (in w/w %, cf. Tables 5 to 12 below). To determine synergistic indices, raw values for bacterial of fungal colony counts were used.
(§3) To calculate the synergism between the indicated antimicrobial actives (cf. preservative efficacy tests below), the Kull equation (Kull et al., Applied Microbiology 1961, 9 (6), pp. 538-541, DOI: 10.1128/am.9.6.538-541.1961.; Steinberg D. C. (2000): Measuring Synergy. In Cosmetics & Toiletries, 115) was used:
(§4) [formula] • where • SI is the synergism index according to Kull • CA is the cell count for substance A (also “count A”) • CB is the cell count for substance B (also “count B”) • Cmixture is the cell count for the mixture of substance A and B (also “count mix”) • PA is the proportion of the substance A in the mixture in relation to the concentration tested alone • PB is the proportion of the substance B in the mixture in relation to the concentration tested alone

S. aureus [4] = assay: as above; type: cell-based, Staphylococcus aureus
Method: as §2, §3, §4

C. albicans = assay: as above; type: cell-based, Candida albicans; conditions: substance alone 0.5% w/w
Method: as §2, §4

A. brasiliensis = assay: as above; type: cell-based, Aspergillus brasiliensis
Method: as §2, §4

P. aeruginosa = assay: as above; type: cell-based, Pseudomonas aeruginosa; conditions: substance alone 0.5% w/w
Method: as §2, §4

CCCCCCCC(=O)OCCCO [3-Hydroxypropyl caprylate, 3-hydroxypropyl caprylate]
Absolute cell counts 2 days (S. aureus [1]): 2.10E+05
Relative cell counts 2 days (S. aureus [1]): 0.0382
Absolute cell counts 7 days (S. aureus [1]): 1.80E+02
Relative cell counts 7 days (S. aureus [1]): 0.0000
Absolute cell counts 14 days (S. aureus [1]): 1
Relative cell counts 14 days (S. aureus [1]): 0.0000
Absolute cell counts 28 days (S. aureus [1]): 1
Relative cell counts 28 days (S. aureus [1]): 0.0000
Absolute cell counts 2 days (E. coli [2]): 3.30E+06
Relative cell counts 2 days (E. coli [2]): 0.9706
Absolute cell counts 7 days (E. coli [2]): 2.60E+04
Relative cell counts 7 days (E. coli [2]): 0.0076
Absolute cell counts 14 days (E. coli [2]): 1
Relative cell counts 14 days (E. coli [2]): 0.0000
Absolute cell counts 28 days (E. coli [2]): 1
Relative cell counts 28 days (E. coli [2]): 0.0000
Absolute cell counts 2 days (E. coli [3]): 1.80E+06
Relative cell counts 2 days (E. coli [3]): 0.5806
Absolute cell counts 7 days (E. coli [3]): 2.00E+06
Relative cell counts 7 days (E. coli [3]): 0.6452
Absolute cell counts 14 days (E. coli [3]): 1.70E+06
Relative cell counts 14 days (E. coli [3]): 0.5484
Absolute cell counts 28 days (E. coli [3]): 1.10E+06
Relative cell counts 28 days (E. coli [3]): 0.3548
Absolute cell counts 2 days (S. aureus [4]; substance alone 0.5% w/w): 1
Relative cell counts 2 days (S. aureus [4]; substance alone 0.5% w/w): 0.0000
Absolute cell counts 7 days (S. aureus [4]; substance alone 0.5% w/w): 1
Relative cell counts 7 days (S. aureus [4]; substance alone 0.5% w/w): 0.0000
Absolute cell counts 14 days (S. aureus [4]; substance alone 0.5% w/w): 1
Relative cell counts 14 days (S. aureus [4]; substance alone 0.5% w/w): 0.0000
Absolute cell counts 28 days (S. aureus [4]; substance alone 0.5% w/w): 1
Relative cell counts 28 days (S. aureus [4]; substance alone 0.5% w/w): 0.0000
Absolute cell counts 2 days (C. albicans): 2.10E+03
Relative cell counts 2 days (C. albicans): 0.0010
Absolute cell counts 7 days (C. albicans): 1
Relative cell counts 7 days (C. albicans): 0.0000
Absolute cell counts 14 days (C. albicans): 1
Relative cell counts 14 days (C. albicans): 0.0000
Absolute cell counts 28 days (C. albicans): 1
Relative cell counts 28 days (C. albicans): 0.0000
Absolute cell counts 2 days (A. brasiliensis; substance alone 0.5% w/w): 3.00E+06
Relative cell counts 2 days (A. brasiliensis; substance alone 0.5% w/w): 0.9091
Absolute cell counts 7 days (A. brasiliensis; substance alone 0.5% w/w): 3.80E+06
Relative cell counts 7 days (A. brasiliensis; substance alone 0.5% w/w): 1.1515
Absolute cell counts 14 days (A. brasiliensis; substance alone 0.5% w/w): 4.50E+06
Relative cell counts 14 days (A. brasiliensis; substance alone 0.5% w/w): 1.3636
Absolute cell counts 28 days (A. brasiliensis; substance alone 0.5% w/w): 8.10E+05
Relative cell counts 28 days (A. brasiliensis; substance alone 0.5% w/w): 0.2455
Absolute cell counts 2 days (P. aeruginosa): 9.30E+04
Relative cell counts 2 days (P. aeruginosa): 0.0211
Absolute cell counts 7 days (P. aeruginosa): 9.50E+02
Relative cell counts 7 days (P. aeruginosa): 0.0002
Absolute cell counts 14 days (P. aeruginosa): 1
Relative cell counts 14 days (P. aeruginosa): 0.0000
Absolute cell counts 28 days (P. aeruginosa): 1
Relative cell counts 28 days (P. aeruginosa): 0.0000

CC(C)(C)C(=O)C(Oc1ccc(Cl)cc1)n1ccnc1 (stereo not shown) [Climbazole, climbazole, reference compound]
Absolute cell counts 2 days (A. brasiliensis; substance alone 0.5% w/w): 1.50E+05
Relative cell counts 2 days (A. brasiliensis; substance alone 0.5% w/w): 0.0366
Absolute cell counts 7 days (A. brasiliensis; substance alone 0.5% w/w): 6.20E+04
Relative cell counts 7 days (A. brasiliensis; substance alone 0.5% w/w): 0.0151
Absolute cell counts 14 days (A. brasiliensis; substance alone 0.5% w/w): 5.90E+04
Relative cell counts 14 days (A. brasiliensis; substance alone 0.5% w/w): 0.0144
Absolute cell counts 28 days (A. brasiliensis; substance alone 0.5% w/w): 4.60E+04
Relative cell counts 28 days (A. brasiliensis; substance alone 0.5% w/w): 0.0112

Cc1cc(CC(C)CC(C)(C)C)n(O)c(=O)c1.NCCO (stereo not shown) [Piroctone olamine, piroctone olamine, reference compound]
Absolute cell counts 2 days (S. aureus [1]): 2.50E+06
Relative cell counts 2 days (S. aureus [1]): 0.7813
Absolute cell counts 7 days (S. aureus [1]): 3.80E+04
Relative cell counts 7 days (S. aureus [1]): 0.0119
Absolute cell counts 14 days (S. aureus [1]): 1
Relative cell counts 14 days (S. aureus [1]): 0.0000
Absolute cell counts 28 days (S. aureus [1]): 1
Relative cell counts 28 days (S. aureus [1]): 0.0000
Absolute cell counts 2 days (E. coli [2]): 1
Relative cell counts 2 days (E. coli [2]): 0.0000
Absolute cell counts 7 days (E. coli [2]): 1
Relative cell counts 7 days (E. coli [2]): 0.0000
Absolute cell counts 14 days (E. coli [2]): 1
Relative cell counts 14 days (E. coli [2]): 0.0000
Absolute cell counts 28 days (E. coli [2]): 1
Relative cell counts 28 days (E. coli [2]): 0.0000
Absolute cell counts 2 days (C. albicans): 1
Relative cell counts 2 days (C. albicans): 0.0000
Absolute cell counts 7 days (C. albicans): 1
Relative cell counts 7 days (C. albicans): 0.0000
Absolute cell counts 14 days (C. albicans): 1
Relative cell counts 14 days (C. albicans): 0.0000
Absolute cell counts 28 days (C. albicans): 1
Relative cell counts 28 days (C. albicans): 0.0000
Absolute cell counts 2 days (P. aeruginosa): 1
Relative cell counts 2 days (P. aeruginosa): 0.0000
Absolute cell counts 7 days (P. aeruginosa): 1
Relative cell counts 7 days (P. aeruginosa): 0.0000
Absolute cell counts 14 days (P. aeruginosa): 1
Relative cell counts 14 days (P. aeruginosa): 0.0000
Absolute cell counts 28 days (P. aeruginosa): 1
Relative cell counts 28 days (P. aeruginosa): 0.0000

C/C=C/C=C/C(=O)[O-].[K+] [Potassium Sorbate, potassium sorbate]
Absolute cell counts 2 days (A. brasiliensis; substance alone 0.5% w/w): 1.40E+04
Relative cell counts 2 days (A. brasiliensis; substance alone 0.5% w/w): 0.0034
Absolute cell counts 7 days (A. brasiliensis; substance alone 0.5% w/w): 1
Relative cell counts 7 days (A. brasiliensis; substance alone 0.5% w/w): 0.0000
Absolute cell counts 14 days (A. brasiliensis; substance alone 0.5% w/w): 1
Relative cell counts 14 days (A. brasiliensis; substance alone 0.5% w/w): 0.0000
Absolute cell counts 28 days (A. brasiliensis; substance alone 0.5% w/w): 1
Relative cell counts 28 days (A. brasiliensis; substance alone 0.5% w/w): 0.0000

O=C(O)c1ccccc1O [Salicylic Acid, salicylic acid, reference compound]
Absolute cell counts 2 days (E. coli [3]): 9.50E+03
Relative cell counts 2 days (E. coli [3]): 0.0021
Absolute cell counts 7 days (E. coli [3]): 7.20E+03
Relative cell counts 7 days (E. coli [3]): 0.0016
Absolute cell counts 14 days (E. coli [3]): 1
Relative cell counts 14 days (E. coli [3]): 0.0000
Absolute cell counts 28 days (E. coli [3]): 1
Relative cell counts 28 days (E. coli [3]): 0.0000
Absolute cell counts 2 days (C. albicans): 7.30E+01
Relative cell counts 2 days (C. albicans): 0.0000
Absolute cell counts 7 days (C. albicans): 1
Relative cell counts 7 days (C. albicans): 0.0000
Absolute cell counts 14 days (C. albicans): 1
Relative cell counts 14 days (C. albicans): 0.0000
Absolute cell counts 28 days (C. albicans): 1
Relative cell counts 28 days (C. albicans): 0.0000
Absolute cell counts 2 days (P. aeruginosa): 1
Relative cell counts 2 days (P. aeruginosa): 0.0000
Absolute cell counts 7 days (P. aeruginosa): 1
Relative cell counts 7 days (P. aeruginosa): 0.0000
Absolute cell counts 14 days (P. aeruginosa): 1
Relative cell counts 14 days (P. aeruginosa): 0.0000
Absolute cell counts 28 days (P. aeruginosa): 1
Relative cell counts 28 days (P. aeruginosa): 0.0000

O=C([O-])c1ccccc1.[Na+] [Sodium Benzoate, sodium benzoate]
Absolute cell counts 2 days (E. coli [3]): 8.70E+05
Relative cell counts 2 days (E. coli [3]): 0.1933
Absolute cell counts 7 days (E. coli [3]): 9.50E+05
Relative cell counts 7 days (E. coli [3]): 0.2111
Absolute cell counts 14 days (E. coli [3]): 4.20E+05
Relative cell counts 14 days (E. coli [3]): 0.0933
Absolute cell counts 28 days (E. coli [3]): 2.40E+04
Relative cell counts 28 days (E. coli [3]): 0.0053
Absolute cell counts 2 days (S. aureus [4]; substance alone 0.2% w/w): 2.20E+04
Relative cell counts 2 days (S. aureus [4]; substance alone 0.2% w/w): 0.0037
Absolute cell counts 7 days (S. aureus [4]; substance alone 0.2% w/w): 1
Relative cell counts 7 days (S. aureus [4]; substance alone 0.2% w/w): 0.0000
Absolute cell counts 14 days (S. aureus [4]; substance alone 0.2% w/w): 1
Relative cell counts 14 days (S. aureus [4]; substance alone 0.2% w/w): 0.0000
Absolute cell counts 28 days (S. aureus [4]; substance alone 0.2% w/w): 1
Relative cell counts 28 days (S. aureus [4]; substance alone 0.2% w/w): 0.0000
Absolute cell counts 2 days (A. brasiliensis; substance alone 0.2% w/w): 8.00E+04
Relative cell counts 2 days (A. brasiliensis; substance alone 0.2% w/w): 0.0800
Absolute cell counts 7 days (A. brasiliensis; substance alone 0.2% w/w): 1.10E+04
Relative cell counts 7 days (A. brasiliensis; substance alone 0.2% w/w): 0.0110
Absolute cell counts 14 days (A. brasiliensis; substance alone 0.2% w/w): 3.30E+02
Relative cell counts 14 days (A. brasiliensis; substance alone 0.2% w/w): 0.0003
Absolute cell counts 28 days (A. brasiliensis; substance alone 0.2% w/w): 3.20E+02
Relative cell counts 28 days (A. brasiliensis; substance alone 0.2% w/w): 0.0003
Absolute cell counts 2 days (P. aeruginosa): 9.60E+03
Relative cell counts 2 days (P. aeruginosa): 0.0026
Absolute cell counts 7 days (P. aeruginosa): 1
Relative cell counts 7 days (P. aeruginosa): 0.0000
Absolute cell counts 14 days (P. aeruginosa): 1
Relative cell counts 14 days (P. aeruginosa): 0.0000
Absolute cell counts 28 days (P. aeruginosa): 1
Relative cell counts 28 days (P. aeruginosa): 0.0000
